Test system: B6CBAF1/j hybrid mice
Assay: Testosterone-induced hair loss in mice: hair loss area and follicle count
Type: in vivo
Conditions: after two weeks; testosterone 10 mg/ml + each test substance 1 mg/ml; compared to testosterone alone (group T); FIG. 3
Description: B6CBAF1/j hybrid mice (5 weeks old, male, Charles River Japan) were acclimated for one week in a breeding room and then used from the time of 6 weeks after birth.
For use in an injection agent, a solvent was prepared to contain 15% of ethanol, 5% of NMP, and 80% of PBS. Solutions were prepared by mixing the solvent with the following solutes: group T (testosterone 10 mg/ml), group TD (testosterone 10 mg/ml+deoxycholic acid 1 mg/ml), group TR (testosterone 10 mg/ml+resveratrol 1 mg/ml), group TF (testosterone 10 mg/ml+finasteride 1 mg/ml), and group TRF (testosterone 10 mg/ml+resveratrol 1 mg/ml+finasteride 1 mg/ml).
The animals were anesthetized with isoflurane through inhalation and injected subcutaneously at the neck with 100 μl of a testosterone solution (10 mg/ml) every day. From a couple of weeks, they were photographed along with a scale bar to quantify a hair loss area. After six weeks of testing, the mice were sacrificed by means of a CO2 incubator. Test areas of the skin were taken, fixed with formalin, and prepared into paraffin blocks. The blocks were horizontally sectioned and dyed with H&E (Hematoxylin & Eosin) to count follicles per mm^2.

Oc1ccc(C=Cc2cc(O)cc(O)c2)cc1 [resveratrol]
increment in hair loss area: greatly reduced

Source: US20190125648A1, “COMPOSITION FOR PREVENTING, IMPROVING OR TREATING HAIR LOSS COMPRISING DEOXYCHOLIC ACID AS ACTIVE INGREDIENT” (priority 2016, published 2019)
